Here are results for eight compounds from US6123959A, “Aqueous composition comprising active ingredients for the de-pigmentation of the skin” (Univera Pharmaceuticals, Inc., priority 1998, dated 2000).

Read-outs that look alike come from different tables or passages of the source.

For one data set, the system named is skin. To be noted: cited from earlier work; for quantity required to achieve a similar effect, compared to hydroquinone: relative to quantity of hydroquinone used.
Data set [1] concerns tyrosinase. The note with it: cited from earlier work.
For a further data set, the system named is synthesis of melanin. To be noted: cited from earlier work.
Data set [2] relates to tyrosinase. Kind of data set: in vitro tyrosinase inhibition assay (L-Dopa conversion to dopachrome, absorption at 475 nm). It counts as biochemical. The note with it: pH 6.8. The method, then:
An in vitro tyrosinase inhibition assay was carried out using a modification of the procedure described by Pomerantz […] J. Biol. Chem. 238:2351-2357. According to this method, the conversion of L-Dopa, a substrate of tyrosinase, into dopaquinone and then dopachrome is followed by monitoring absorption at 475 nm in a spectrophotometer. As the colored substance dopachrome absorbs light having a wavelength of 475 nm, a quantitative measurement of the time-related conversion and thus the activity of tyrosinase can be made.
Each sample was prepared in a 50 mM potassium phosphate buffer which had been adjusted to pH 6.8, and stabilized by the addition of 10% DMSO. Tyrosinase (48 u, "u" represents the activity units of an enzyme, measured in mM substratum conversion per minute) was added to each sample. A double assessment was carried out for each inhibitor, using two different starting concentrations of L-Dopa: 0.4 mM and 0.2 mM. Controls were also run using the same concentrations of uninhibited tyrosinase to serve as the neutral value. In the control samples the volume of inhibitor was replaced with 50 mM potassium phosphate buffer. The time-related difference in absorption, and thus the conversion of L-Dopa, was followed for a period of two minutes.
The conversion kinetics of the tyrosinase was measured upon addition of the following concentrations of inhibitor: arbutin (0.9 mM); aloesin (0.0192 mM; 0.0385 mM and 0.0769 mM) and with the respective combination of both of the inhibitors. Enzyme inhibition was determined from the difference between the inhibited and the uninhibited kinetics. It is worth noting that the compositions examined in this example contain no liposomes, as the penetration ability and bio-availability are of no significance in an in vitro test. The purpose of these in vitro studies was to determine the efficacy of the inhibitors (arbutin and aloesin) individually and combinations thereof.

The test system of data set [3] is tyrosinase. The note with it: cited from earlier work; for mode of tyrosinase inhibition: Lineweaver Burk diagram.
Data set [4] deals with tyrosinase. The experiment in a line: inhibitory effect on tyrosinase of octylaloesin compared to aloesin. It counts as biochemical.

Regarding `O=C1O[C@H]([C@@H](O)CO)C(O)=C1O` [ascorbic acid], the “quantity required to achieve a similar effect, compared to hydroquinone” value in the data set with skin was 17 times. Also, in the data set on tyrosinase [1], the “mode of tyrosinase inhibition” value was “competitive inhibitors”.

Regarding `CC/C=C\C/C=C\C/C=C\CCCCCCCC(=O)O` [linolenic acid], the “inhibition of the synthesis of melanin” value in the data set on synthesis of melanin is listed as “inhibit the synthesis of melanin”.

Regarding `OC[C@H]1O[C@@H](Oc2ccc(O)cc2)[C@H](O)[C@@H](O)[C@@H]1O` [arbutin], the “quantity required to achieve a similar effect, compared to hydroquinone” value with skin is “over 100 times”. The “% Inhibition Tyrosinase” value in the data set with tyrosinase [2] (arbutin 0.9 mM) turned out to be 29%. For the same compound, the “mode of tyrosinase inhibition” value with tyrosinase [1] is “competitive inhibitors”.

As to `Oc1ccc(O)cc1` [hydroquinone], in the data set with skin (applied over long periods of time), the side effects result is reported as “serious side effects”. Moreover, the “photosensitivity of the skin” value with skin (exposed to UV light) is reported as “increased photosensitivity”. In addition, the “de-pigmentation (persistence)” value in the data set on skin (in vivo) is listed as “permanent de-pigmentation”.

`O=c1cc(CO)occ1O` [kojic acid]: the “mode of tyrosinase inhibition” value in the data set on tyrosinase [1] is on record as “competitive inhibitors”.

`COc1cc(/C=C/C(=O)O[C@@H]2[C@@H](O)[C@H](O)[C@@H](CO)O[C@H]2c2c(O)cc(C)c3c(=O)cc(CC(C)=O)oc23)ccc1O` [2"-O-feruloylaloesin]: in the data set with tyrosinase [3], the “mode of tyrosinase inhibition” value is listed as “non-competitive inhibitors” and the inhibition of tyrosinase entry is “effective inhibitors of tyrosinase”.

With `CCCCCCCCOc1cc(C)c2c(=O)cc(CC(C)=O)oc2c1[C@@H]1O[C@H](CO)[C@@H](O)[C@H](O)[C@H]1O` [octylaloesin], the “inhibitory effect on tyrosinase compared to aloesin” value in the data set on tyrosinase [4] is given as “significantly higher inhibitory effect on tyrosinase”.

Take `CC(=O)Cc1cc(=O)c2c(C)cc(O)c([C@@H]3O[C@H](CO)[C@@H](O)[C@H](O)[C@H]3O)c2o1` [aloesin]: the “mode of tyrosinase inhibition” value with tyrosinase [3] was “non-competitive inhibitors”. In addition, the inhibition of tyrosinase entry in the data set on tyrosinase [3] is on record as “effective inhibitors of tyrosinase”. The entries for the “% Inhibition Tyrosinase” value with tyrosinase [2] (aloesin 0.0192 mM), in the data set with tyrosinase [2] (aloesin 0.0385 mM) and in the data set with tyrosinase [2] (aloesin 0.0769 mM) were 20%, 32% and 46%, respectively.
